In PMC7649969, “Pyrazolyl-pyrimidones inhibit the function of human solute carrier protein SLC11A2 (hDMT1) by metal chelation” (RSC Medicinal Chemistry, 2020):
Entries after “also recorded” stand apart in the source; their conditions may differ.

Assay: iron precipitation assay (removal of radioactive 55Fe2+ from buffer)
Type: physicochemical
Conditions: pH 5.5, 55Fe2+ 1 μM, compound 10 μM, 15 min
Protocol: Fig. 4 Chemical evidence of divalent metal complexation by hDMT1 inhibitors. (a and b) Isothermal titration calorimetry of pyrazole 13 (0.4 mM) with Cd^2+ (5 mM) in aqueous buffer pH 7.4 and pH 5.5, 25 °C. (c) Calcein quenching assay in aqueous buffer pH 5.5 (2 μM Fe^2+, 10 μM ligand, 1 μM calcein). Fe^2+ (2 μM), ascorbic acid (200 μM) and compounds (20 μM) were incubated for 5 min before the addition of calcein (1 μM) in Krebs buffer at pH 5.5. Fluorescence was measured after 5 min incubation. (d and e) Removal of radioactive ^55Fe^2+ from buffers upon incubation with ligands and centrifugation. ^55Fe^2+ (1 μM) precipitation upon interaction with the indicated compounds (10 μM). ^55Fe^2+ and the indicated compounds were incubated for 15 min, then, an aliquot of the solution supernatant was taken for determination of the remaining ^55Fe^2+. Data was normalized to the values obtained for the Fe^2+ + DMSO (0.1%) solution and represented as mean ± SD (N = 15; 2 independent experiments). Statistical differences were assessed using T-test or Mann–Whitney U test (Fe^2++ DMSO vs. each compound); p > 0.05 = ns; p < 0.05 = *; p < 0.001 = ***. […]
Iron precipitation assay. Polypropylene tubes containing uptake solution (140 mM NaCl, 2.5 mM KCl, 1 mM CaCl2, 1 mM MgCl2, 1.2 mM K2HPO4, 10 mM glucose, 5 mM HEPES, 5 mM MES, pH 7.4) supplemented with 1 µM Ferrous iron (Fe2+), 100 µM Ascorbic Acid, radiolabelled 55Fe2+ (0.5 µCi/mL) and 10 µM of the different compounds under study were incubated for 15 minutes at RT. Then, 10 µL aliquots from each tube were transferred in quadruplicate to a clear bottom, white -well, poly-D-lysine coated 96-well plate (Corning), and 55Fe2+ content was determined by scintillation counting as above described. […]
Statistics. Except when representative experiments are presented, results are shown as Mean ± Standard deviation (SD). Parametric distribution of the averaged values was assessed by […]

SMILES	precipitation of Fe2+
Cc1nn(-c2ccccn2)c(O)c1C(=O)Nc1cccc(C(F)(F)F)c1 [Compound 3, reference compound]	only observed precipitation with the literature inhibitor 3; also recorded: high precipitation of iron

Same assay, conditions: pH 7.4, 55Fe2+ 1 μM, compound 10 μM, 15 min

SMILES	precipitation of Fe2+
N=C(N)SCc1cccc2c1oc1c(CSC(=N)N)cccc12 [Compound 1, reference compound]	had no effect
c1ccc(-c2ccccn2)nc1 [bipyridine]	had no effect
Cc1cc(O)nc(-n2nc(C)cc2C)n1 [Compound 5]	had no effect
Cc1cc(=O)[nH]c(-n2nc3c(c2C)CCCC3)n1 [Compound 13]	induced significant precipitation
Cc1nn(-c2ccccn2)c(O)c1C(=O)Nc1cccc(C(F)(F)F)c1 [Compound 3, reference compound]	induced significant precipitation
